Experimental data: patent publication US9233979B2, “Compounds that are ERK inhibitors” (Merck Sharp & Dohme Corp., priority 2012, dated 2016)
Read-outs that look alike come from different tables or passages of the source.

Target: phosphorylated active hERK2 enzyme (Homo sapiens (Human), UniProt P28482)
Experiment: Active Human ERK2 (hERK2) Activity Assay (IMAP-FP)
Assay type: biochemical
Conditions: 10 point titration, read-out: AERK2 IC50
Description: Assays Active Human ERK2 (hERK2) Activity Assay:
Activated ERK2 activity was determined in an IMAP-FP assay (Molecular Devices). […] The final reaction in each well of 25 μL consists of 0.5 nM hERK2, 900 nM unlabeled peptide, 80 nM labeled-peptide, and 30 μM ATP. Phosphorylation reactions were allowed to proceed for 60 minutes and were immediately quenched by the addition of 60 μL IMAP detection beads (1:1000 dilutions) in IMAP binding buffer (Molecular Devices) with 24 mM NaCl. Plates were read on EnVision reader after 60 minutes binding equilibration using Fluorescence Polarization protocol (Perkin Elmer).

[1] = Table 5, 0.5 nM hERK2, 30 μM ATP
[2] = Table 6, 0.5 nM hERK2, 30 μM ATP

Chain of phosphorylated active hERK2 enzyme (P28482 whole entry): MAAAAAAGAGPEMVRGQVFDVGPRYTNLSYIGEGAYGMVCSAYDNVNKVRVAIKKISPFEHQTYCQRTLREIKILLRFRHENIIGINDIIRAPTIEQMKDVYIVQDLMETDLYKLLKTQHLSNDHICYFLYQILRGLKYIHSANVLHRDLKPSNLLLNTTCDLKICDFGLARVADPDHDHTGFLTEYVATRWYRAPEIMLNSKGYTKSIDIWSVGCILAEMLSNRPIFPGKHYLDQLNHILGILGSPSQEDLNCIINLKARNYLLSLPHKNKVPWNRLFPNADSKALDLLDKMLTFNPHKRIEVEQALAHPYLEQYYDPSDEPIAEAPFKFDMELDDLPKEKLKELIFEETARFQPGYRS

Row | SMILES | IC50 [1] [nM] | IC50 [2] [nM]
1 | COCCNC(=O)Nc1cc2[nH]nc(N3CC(OC)C3)c2cn1 [Example 7, 1-[3-(3-methoxyazetidin-1-yl)-1H-pyrazolo[4,3-c]pyridin-6-yl]-3-(2-methoxyethyl)urea] | 342 | 
2 | C[C@@H](NC(=O)Nc1cc2[nH]nc(N3CCC(C)(O)CC3)c2cn1)c1ccccc1 [Example 424, 1-[3-(4-hydroxy-4-methylpiperidin-1-yl)-1H-pyrazolo[4,3-c]-pyridin-6-yl]-3-[(1R)-1-phenylethyl]urea] |  | 21.5
3 | COCC(=O)Nc1n[nH]c2cc(NC(=O)N[C@H](C)c3ccccc3)ncc12 [Example 318, (R)-2-methoxy-N-(6-(3-(1-phenylethyl)ureido)-1H-pyrazolo[4,3-c]pyridin-3-yl)acetamide] |  | 2.2
4 | C[C@@H](NC(=O)Nc1cc2[nH]nc(N3CCC(C#N)CC3)c2cn1)c1ccccc1 [Example 423, 1-[3-(4-cyanopiperidin-1-yl)-1H-pyrazolo[4,3-c]-pyridin-6-yl]-3-[(1R)-1-phenylethyl]urea] |  | 9.7
5 | CC(C)CC(=O)Nc1n[nH]c2cc(NC(=O)N[C@H](C)c3ccccc3)ncc12 [Example 209, 3-methyl-N-[6-({[(1R)-1-phenylethyl]-carbamoyl}amino)-1H-pyrazolo[4,3-c]pyridin-3-yl]-butanamide] |  | 1.6
6 | Nc1n[nH]c2cc(NC(=O)N[C@@H](c3ccccc3)[C@H]3CCCO3)ncc12 [Example 153, 1-(3-amino-1H-pyrazolo[4,3-c]pyridin-6-yl)-3-{(S)-phenyl[(2R)-tetrahydrofuran-2-yl]methyl}urea] |  | 0.7
7 | CC(C)(O)[C@@H](NC(=O)Nc1cc2[nH]nc(NC(=O)N3CCC3)c2cn1)c1ccc(F)cc1 [Example 130, N-[6-({[(1S)-1-(4-fluorophenyl)-2-hydroxy-2-methylpropyl]-carbamoyl}amino)-1H-pyrazolo[4,3-c]pyridin-3-yl]-azetidine-1-carboxamide] |  | 0.5
8 | C[C@@H](NC(=O)Nc1cc2[nH]nc(NC3CCCNC3)c2cn1)c1ccccc1 (stereo partly drawn) [Example 164, 1-[(1R)-1-phenylethyl]-3-[3-(piperidin-3-ylamino)-1H-pyrazolo[4,3-c]-pyridin-6-yl]urea] |  | 30.2
9 | CC(CCl)Nc1n[nH]c2cc(NC(=O)N[C@H](C)c3ccccc3)ncc12 (stereo partly drawn) [Example 197, 1-{3-[(2-chloro-1-methylethyl)amino]-1H-pyrazolo[4,3-c]pyridin-6-yl}-3-[(1R)-1-phenylethyl]urea] |  | 3.1
10 | C[C@@H](NC(=O)Nc1cc2[nH]nc(NS(=O)(=O)C3CC3)c2cn1)c1ccccc1 [Example 52, N-[6-({[(1R)-1-phenylethyl]carbamoyl}amino)-1H-pyrazolo[4,3-c]pyridin-3-yl]cyclopropanesulfonamide] | 914 | 
11 | COC(=O)Nc1n[nH]c2cc(NC(=O)N[C@H](C)c3ccc(Cl)cc3)ncc12 [Example 286, methyl [6-({[(1R)-1-(4-chlorophenyl)-ethyl]carbamoyl}-amino)-1H-pyrazolo[4,3-c]pyridin-3-yl]carbamate] |  | 5.2
12 | Nc1n[nH]c2cc(NC(=O)NC3COc4ccccc43)ncc12 (centres unmarked) [Example 259, 1-(3-amino-1H-pyrazolo[4,3-c]pyridin-6-yl)-3-(2,3-dihydro-1-benzofuran-3-yl)-urea] |  | 325
13 | CC(=O)N(C)c1n[nH]c2cc(NC(=O)N[C@H](C)c3ccccc3)ncc12 [Example 349, N-methyl-N-[6-({[(1R)-1-phenyl-ethyl]carbamoyl}-amino)-1H-pyrazolo[4,3-c]-pyridin-3-yl]-acetamide] |  | 484
14 | Nc1n[nH]c2cc(NC(=O)N[C@@H](c3ccccc3)[C@@H]3CCCO3)ncc12 [Example 152, 1-(3-amino-1H-pyrazolo[4,3-c]pyridin-6-yl)-3-{(S)-phenyl[(2S)-tetrahydrofuran-2-yl]methyl}urea] |  | 0.9
15 | CC1=NOC(CNc2n[nH]c3cc(NC(=O)N[C@H](C)c4ccccc4)ncc23)C1 (stereo partly drawn) [Example 173, 1-(3-{[(3-methyl-4,5-dihydro-isoxazol-5-yl)-methyl]amino}-1H-pyrazolo[4,3-c]-pyridin-6-yl)-3-[(1R)-1-phenylethyl]urea] |  | 5.8
16 | C[C@@H](O)[C@@H](NC(=O)Nc1cc2[nH]nc(N3CCC3)c2cn1)c1ccc(F)cc1 [Example 105, 1-(3-azetidin-1-yl-1H-pyrazolo[4,3-c]pyridin-6-yl)-3-[(1S,2R)-1-(4-fluorophenyl)-2-hydroxypropyl]urea] |  | 2.8
17 | C[C@@H](NC(=O)Nc1cc2[nH]nc(NC(=O)OC3CCOC3)c2cn1)c1ccc(F)cc1 (stereo partly drawn) [Example 401, tetrahydrofuran-3-yl [6-({[(1R)-1-(4-fluorophenyl)ethyl]carbamoyl}amino)-1H-pyrazolo[4,3-c]pyridin-3-yl]-carbamate] |  | 15.3
18 | C[C@@H](NC(=O)Nc1cc2[nH]nc(N)c2cn1)c1cccc(Cl)c1 [Example 272, 1-(3-amino-1H-pyrazolo[4,3-c]pyridin-6-yl)-3-[(1R)-1-(3-chloro-phenyl)ethyl]urea] |  | 5.6

Row | SMILES | IC50 [1] [nM] | IC50 [2] [nM]
19 | [2H]C([2H])([2H])C([2H])([2H])Nc1n[nH]c2cc(NC(=O)N[C@H](C)c3ccccc3)ncc12 [Example 113, (R)-1-(3-((ethyl-D5)amino)-1H-pyrazolo[4,3-c]-pyridin-6-yl)-3-(1-phenylethyl)urea] |  | 1.6
20 | CCNc1n[nH]c2cc(NC(=O)NCc3c(C)cccc3Cl)ncc12 [Example 227, 1-(2-chloro-6-methylbenzyl)-3-[3-(ethylamino)-1H-pyrazolo[4,3-c]pyridin-6-yl]urea] |  | 11.3
21 | Nc1n[nH]c2cc(NC(=O)N[C@@H](c3ccccc3)C3(O)CCCC3)ncc12 [Example 260, 1-(3-amino-1H-pyrazolo[4,3-c]-pyridin-6-yl)-3-[(S)-(1-hydroxy-cyclopentyl)-(phenyl)methyl]-urea] |  | 0.4
22 | COC(=O)Nc1n[nH]c2cc(NC(=O)N[C@@H](c3ccccc3)C3(O)CCCC3)ncc12 [Example 289, methyl [6-({[(S)-(1-hydroxycyclo-pentyl)(phenyl)-methyl]carbamoyl}amino)-1H-pyrazolo[4,3-c]-pyridin-3-yl]-carbamate] |  | 0.9
23 | C[C@@H](NC(=O)Nc1cc2[nH]nc(NC(=O)N3CC(C)(O)C3)c2cn1)c1ccccc1 [Example 134, 3-hydroxy-3-methyl-N-[6-({[(1R)-1-phenylethyl]-carbamoyl}-amino)-1H-pyrazolo[4,3-c]pyridin-3-yl]-azetidine-1-carboxamide] |  | 8.6
24 | CCNc1n[nH]c2cc(NC(=O)N[C@@H]3CCC[C@H]3OC)ncc12 [Example 411, 1-[3-(ethylamino)-1H-pyrazolo[4,3-c]pyridin-6-yl]-3-[(1R,2R)-2-methoxy-cyclopentyl]urea] |  | 99.3
25 | CCNc1n[nH]c2cc(NC(=O)NCc3cccnc3N(C)C)ncc12 [Example 250, 1-{[2-(dimethyl-amino)pyridin-3-yl]methyl}-3-[3-(ethylamino)-1H-pyrazolo[4,3-c]-pyridin-6-yl]urea] |  | 32
26 | Nc1n[nH]c2cc(NC(=O)N[C@H](c3ccccc3)[C@@H]3CCCO3)ncc12 [Example 155, 1-(3-amino-1H-pyrazolo[4,3-c]pyridin-6-yl)-3-{(R)-phenyl[(2S)-tetrahydrofuran-2-yl]methyl}urea] |  | 495
27 | COC(=O)Nc1n[nH]c2cc(NC(=O)N[C@H](C)C3CCCCC3)ncc12 [Example 292, methyl [6-({[(1R)-1-cyclohexylethyl]-carbamoyl}amino)-1H-pyrazolo[4,3-c]pyridin-3-yl]-carbamate] |  | 19.7
28 | CNc1n[nH]c2cc(NC(=O)N[C@@H](c3ccccc3)[C@H]3CCCO3)ncc12 [Example 145, 1-(3-(methylamino)-1H-pyrazolo[4,3-c]pyridin-6-yl)-3-((S)-phenyl((R)-tetrahydrofuran-2-yl)methyl)urea] |  | 2.1
29 | C[C@@H](NC(=O)Nc1cc2[nH]nc(NC3CC[S+]([O-])C3)c2cn1)c1ccccc1 (stereo partly drawn) [Example 360, 1-{3-[(1-oxidotetrahydrothio-phen-3-yl)amino]-1H-pyrazolo[4,3-c]pyridin-6-yl}-3-[(1R)-1-phenylethyl]urea] |  | 2.6
30 | COC[C@@H](NC(=O)Nc1cc2[nH]nc(NCC3CC(C(C)(C)O)C3)c2cn1)c1ccccc1 (stereo partly drawn) [Example 182, 1-[3-({[3-(1-hydroxy-1-methylethyl)-cyclobutyl]methyl}amino)-1H-pyrazolo[4,3-c]pyridin-6-yl]-3-[(1S)-2-methoxy-1-phenylethyl]urea] |  | 2.6
31 | COC[C@@H](NC(=O)Nc1cc2[nH]nc(N3CCC(O)CC3)c2cn1)c1ccccc1 [Example 410, 1-[3-(4-hydroxypiperidin-1-yl)-1H-pyrazolo[4,3-c]-pyridin-6-yl]-3-[(1S)-2-methoxy-1-phenylethyl]urea] |  | 1.2
32 | C[C@@H](NC(=O)Nc1cc2[nH]nc(NC(=O)C3CCCCC3)c2cn1)c1ccccc1 [Example 204, N-[6-({[(1R)-1-phenylethyl]-carbamoyl}amino)-1H-pyrazolo[4,3-c]pyridin-3-yl]-cyclohexane-carboxamide] |  | 5.9
33 | CC(C)(O)[C@@H](NC(=O)Nc1cc2[nH]nc(N3CCOC(C(F)(F)F)C3)c2cn1)c1ccccc1 (stereo partly drawn) [Example 99, 1-[(1S)-2-hydroxy-2-methyl-1-phenylpropyl]-3-{3-[2-(trifluoromethyl)-morpholin-4-yl]-1H-pyrazolo[4,3-c]-pyridin-6-yl}urea] |  | 0.6
34 | C[C@@H](NC(=O)Nc1cc2[nH]nc(NC(=O)c3ccco3)c2cn1)c1ccccc1 [Example 207, N-[6-({[(1R)-1-phenylethyl]-carbamoyl}amino)-1H-pyrazolo[4,3-c]pyridin-3-yl]-furan-2-carboxamide] |  | 4.6
35 | [2H]C([2H])([2H])C(=O)Nc1n[nH]c2cc(NC(=O)N[C@H](C)c3ccccc3)ncc12 [Example 115, (R)-N-(6-(3-(1-phenylethyl)ureido)-1H-pyrazolo[4,3-c]pyridin-3-yl)(acetamide-D3)] |  | 0.8
